Data published in BindingDB's records for doi:10.7270/Q2S46Q8P (The Scripps Research Institute Molecular Screening Center, 2007).

What follows are compounds tested against T1, 5-hydroxytryptamine receptor 1A (Homo sapiens, UniProt P08908) (assay: serotonin 1A receptor activation, dose response (AID 718)). Conditions: inactive by the depositor's call; pH 7.4; 23 °C.
T1 sequence (P08908 whole entry): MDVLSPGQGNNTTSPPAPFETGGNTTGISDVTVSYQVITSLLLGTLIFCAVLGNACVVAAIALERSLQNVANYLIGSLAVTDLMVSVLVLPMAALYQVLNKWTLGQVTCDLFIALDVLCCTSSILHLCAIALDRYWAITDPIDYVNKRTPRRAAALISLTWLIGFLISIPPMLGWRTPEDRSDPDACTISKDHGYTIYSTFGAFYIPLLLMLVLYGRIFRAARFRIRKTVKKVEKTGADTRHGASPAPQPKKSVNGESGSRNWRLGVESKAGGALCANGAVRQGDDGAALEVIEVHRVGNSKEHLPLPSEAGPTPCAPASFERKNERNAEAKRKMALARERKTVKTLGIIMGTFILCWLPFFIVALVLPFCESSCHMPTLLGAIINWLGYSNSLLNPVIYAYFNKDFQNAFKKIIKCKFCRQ

| SMILES | IC50 [µM] |
| --- | --- |
| CC(C)=CCC(C)(C)CNC(=O)NC1CCCCC1 | 40 |
| CCCOCCOC(=O)c1[nH]c2c(c1C)C(=O)CC(c1cc(OC)ccc1OC)C2 (configuration not stated) | 40 |
| COc1cc2c(cc1OC)-c1cc(N3CCCc4ccccc43)nc(=O)n1CC2 [2-(3,4-dihydro-2H-quinolin-1-yl)-9,10-dimethoxy-6,7-dihydropyrimido[6,1-a]isoquinolin-4-one] | 25 |
| CCOc1ccc(C2=Nn3c(nnc3-c3ccccc3OC)SC2)cc1 [6-(4-ethoxyphenyl)-3-(2-methoxyphenyl)-7H-[1,2,4]triazolo[3,4-b][1,3,4]thiadiazine] | 25 |
| COC(=O)Nc1nc2ccc(Sc3ccccc3)cc2[nH]1 [FENBENDAZOLE] | 40 |
| CCn1c(=O)c(C(=O)Nc2nc3ccccc3[nH]2)c(O)c2ccccc21 [MLS000027148] | 40 |
| N#C/C(=C/c1ccc(N2CCCCCC2)o1)c1ccc(F)cc1 [MLS000051438] | 10.9 |
| CCOc1cccc(-c2nnc3n2N=C(c2cc(OC)ccc2OC)CS3)c1 [MLS000081451] | 22.2 |
| COCCOC(=O)c1[nH]c2c(c1C)C(=O)CC(c1ccccc1)C2 (configuration not stated) [SMR000025505] | 40 |
| CCCOc1ccc2nc(NC(=O)OC)[nH]c2c1 [SMR000058208] | 40 |
| CN(C)c1nc(OCCNC(=O)COc2ccc(Cl)cc2Cl)nc(N2CCCCC2)n1 [SMR000072558] | 40 |
| COc1ccc(C2N(c3ccc(F)cc3)C(=O)C3CCCN32)cc1 (configuration not stated) [SMR000094164] | 40 |

Same assay, conditions: pH 7.4; 23 °C

| SMILES | IC50 [µM] |
| --- | --- |
| CCN(CC)c1ccc2c(Cl)c(Br)c(=O)oc2c1 | 2.3 |
| CCC(NC(=O)Nc1nnc(C(F)(F)F)s1)(C(F)(F)F)C(F)(F)F | 6.92 |
| O=C(Nc1ccc(-c2nc3ncccc3o2)cc1)c1ccc(Br)o1 | 8.32 |
| O=S1(=O)C=C(Sc2nnc(-c3ccccc3)o2)c2ccccc21 | 2.48 |
| OCC12C=CC(O1)c1c2c(O)n(-c2ccc(-c3ccccc3)cc2)c1O (configuration not stated) | 11.6 |
| CCn1nc(-c2ccccc2)nc2c(=O)n(C)c(=O)nc1-2 [1-Ethyl-6-methyl-3-phenyl-1H-pyrimido[5,4-e][1,2,4]triazine-5,7-dione] | 0.581 |
| Cn1c(-c2c(N)n(C3CCCC3)c3nc4ccccc4nc23)nc2ccccc21 [1-cyclopentyl-3-(1-methyl-2-benzimidazolyl)-2-pyrrolo[3,2-b]quinoxalinamine] | 2.38 |
| CCn1nc(-c2cccs2)nc2c(=O)n(C)c(=O)nc1-2 [1-ethyl-6-methyl-3-thiophen-2-yl-pyrimido[5,4-e][1,2,4]triazine-5,7-dione] | 0.421 |
| COc1ccc(-n2nnnc2S(=O)(=O)CC(=O)N2CCCCC2)cc1 [2-[1-(4-methoxyphenyl)tetrazol-5-yl]sulfonyl-1-piperidin-1-ylethanone] | 2.6 |
| N#CCCS(=O)(=O)c1nnnn1-c1ccccc1 [3-(1-phenyltetrazol-5-yl)sulfonylpropanenitrile] | 2.9 |
| COc1ccc(-c2cc(C(F)(F)F)nc(S(C)(=O)=O)n2)cc1OC [4-(3,4-dimethoxyphenyl)-2-methylsulfonyl-6-(trifluoromethyl)pyrimidine] | 3.59 |
| COc1cccc(N2CCN(c3ncnc4c3[nH]c3ccccc34)CC2C)c1 (configuration not stated) [4-[4-(3-methoxyphenyl)-3-methyl-1-piperazinyl]-5H-pyrimido[5,4-b]indole] | 3.31 |
| Cc1ccc(S(=O)(=O)Nc2cccc3ncccc23)s1 [5-methyl-N-quinolin-5-ylthiophene-2-sulfonamide] | 1.1 |
| Cc1ccc(-n2nc3c([n+]2[O-])CCc2c-3n[o+]n2[O-])cc1 [7-(4-methylphenyl)-3,6-dioxido-4,5-dihydrotriazolo[4,5-e][2,1,3]benzoxadiazole-3,6-diium] | 3.26 |
| COc1cccc(N2CCN(c3ncnc4c3[nH]c3ccc(F)cc34)CC2C)c1 (configuration not stated) [8-fluoranyl-4-[4-(3-methoxyphenyl)-3-methyl-piperazin-1-yl]-5H-pyrimido[5,4-b]indole] | 0.866 |
| COc1ccccc1-c1nnc2n1N=C(c1ccc(O)c(O)c1)CS2 [(4E)-4-[3-(2-methoxyphenyl)-5H-[1,2,4]triazolo[3,4-b][1,3,4]thiadiazin-6-ylidene]-2-oxidanyl-cyclohexa-2,5-dien-1-one] | 40 |
| CC(=O)Nc1cc(OC(C)=O)c2nonc2c1OC(C)=O [Acetic acid 7-acetoxy-5-acetylamino-benzo[1,2,5]oxadiazol-4-yl ester] | 1.78 |
| CS(=O)(=O)c1nc(-c2ccccc2)cc(C(F)(F)F)n1 [MLS000044644] | 2.28 |
| CS(=O)(=O)c1nc(-c2cccs2)cc(C(F)(F)F)n1 [MLS000044645] | 2.44 |
| CS(=O)(=O)c1nc(-c2ccco2)cc(C(F)(F)F)n1 [MLS000044646] | 3.3 |
| COc1ccc(-n2c(O)cc(NCc3ccncc3)c2O)cc1 [MLS000099014] | 40 |
| CC(=O)Oc1ccc(-n2c(O)c3c(c2O)C2(C)C=CC3(C)O2)cc1 [MLS000107813] | 7.33 |
| O=C(Nc1ccc(N2CCOCC2)cc1)Nc1ccc2nc(-c3ccco3)c(-c3ccco3)nc2c1 [N-(2,3-di-2-furyl-6-quinoxalinyl)-N'-[4-(4-morpholinyl)phenyl]urea] | 2.29 |
| COc1cccc(N2CCN(c3ncnc4c3cnn4-c3ccc(C)cc3C)CC2)c1 [SMR000017007] | 4.78 |
| CCCc1nnc2n1N=C(c1ccc(OC)c(OC)c1)CS2 [SMR000057783] | 40 |
| Clc1ccc(-n2nnnc2Sc2ncnc3sccc23)cc1 [SMR000066808] | 4.85 |
| COc1cc(NS(=O)(=O)c2ccc(C)cc2)c2ncccc2c1 [SMR000071147] | 0.823 |
| COc1cc2c(cc1OC)C1=C(C#N)CC=C(NS(=O)(=O)c3ccccc3)N1CC2 [SMR000092093] | 40 |
| CSc1ccccc1NC=C1C(=O)CC(C)(C)CC1=O [SMR000111352] | 1.88 |
| COC(=O)/C(=C1/Oc2cc(C)oc(=O)c2S1)C(F)(F)F [methyl (2E)-3,3,3-tris(fluoranyl)-2-(6-methyl-4-oxidanylidene-[1,3]oxathiolo[4,5-c]pyran-2-ylidene)propanoate] | 1.24 |
